Measured values taken from patent US20250108036A1, “COMPOSITIONS FOR REMOVING SENESCENT CELLS AND USES THEREOF” (LIFECEUTIX CO., LTD., priority 2021, published 2025).

How the values were obtained:
[1] = test system: foreskin cells; assay: SA-β-gal staining of doxorubicin-treated foreskin cells (Example 1-1); format: cell-based, human; conditions: proportion of SA-β-gal stained cells; doxorubicin 250 nM 24 h + 7 days
Procedure: Specifically, foreskin cells (source: Chungnam National University College of Medicine) derived from humans were cultured in a designated medium (Iscove's Modified Dulbecco's Medium, source: ATCC; 10% FBS, source: GenDEPOT; 100 U/ml Penicillin & Streptomycin, source: Invitrogen), then treated with doxorubicin (DOX) dissolved in dimethyl sulfoxide (DMSO) at a concentration of 250 nM for 24 hours, and further cultured for 7 days to induce aging. […] To measure the proportion of aged cells, cells treated with doxorubicin and the control group were inoculated into a 24 well plate and stabilized for 24 hours. Then SA-β-gal, a marker related to aging, was stained using a kit (purchased from Cell Signaling Technology), and the proportion of senescent cells having the stained SA-β-gal was measured using an optical microscope.

[2] = test system: SAOS-2; assay: SA-β-gal staining of doxorubicin-treated SAOS-2 cells (Example 2-1); format: cell-based, human; conditions: doxorubicin-induced aging as in Example 1-1
[3] = test system: SAOS-2; assay: CellTiter-Glo cell viability of senescent SAOS-2 cancer cells (Example 2-2); format: cell-based, human
Procedure: The standard for treating various cancers, including osteosarcoma, is repeated chemotherapy. Accordingly, aging was induced in SAOS-2 in the same manner as in Example 2-1, and then (i) treated again with doxorubicin (DOX→DOX) or (ii) treated with the LX-112 (5 μM) composition (DOX→LX-112).

[4] = test system: SAOS-2; assay: senescent SAOS-2 tumor size in mice (Example 2-3); format: in vivo, BALB/c nude mice; conditions: doxorubicin 10 mg/kg i.p.; after 10 days LX-112 100 mg/kg oral daily 21 days or repeated doxorubicin
Procedure: After 7-week-old male BALB/c nude mice (purchased from KRIBB Laboratory Animal Resource Center) were adapted to the experimental environment for one week, the mice were randomized into an experimental group and a control group. SAOS-2 (10^6 cells), a human osteosarcoma cancer cell line cultured in the same manner as Example 2-1, was mixed with PBS (purchased from Welgene) and then anesthetized using 2% isoflurane (purchased from Sigma). It was administered subcutaneously to mice. When the size of the tumor reached about […], doxorubicin was mixed at a concentration of 10 mg/kg in a 1:1 solution of distilled water and PBS (pH 7.2) and administered intraperitoneally to induce tumor aging. After 10 days, LX-112 mixed with 0.5% CMC-Na solution (purchased from Sigma) at a concentration of 100 mg/kg was orally administered daily for 21 days, and the size of the tumor was measured. The control group was repeatedly administered a solution mixed with doxorubicin, and then the size of the tumor was measured.

[5] = test system: p16, p21; assay: p16 and p21 mRNA qRT-PCR in doxorubicin-aged mice (Example 8-2); format: in vivo, C57BL6J mice; conditions: mice, doxorubicin 10 mg/kg i.p.; untreated = 1
Procedure: (§1) After adapting 8-week-old male C57BL6J mice (purchased from KRIBB Laboratory Animal Resource Center) to the experimental environment for 1 week, doxorubicin, an anticancer drug, was administered intraperitoneally at a concentration of 10 mg/kg, and mice that were induced to age for more than 10 days were assigned to an experimental group and a control group. LX-112 was mixed with 0.5% CMC-Na solution (purchased from Sigma) and administered orally at a concentration of 70 mg/kg daily for 21 days. The control group was administered only the solution in the same volume. After drug administration was completed, the method described in each Example below was performed.
The mouse was sacrificed in the same manner as in Example 7-2, RNA was extracted from the organ tissue of each region, and qRT-PCR was performed and analyzed using the synthesized cDNA. […] Table 37 calculates the mRNA amounts of p16 and p21 after aging was induced by treatment with the anticancer drug as 100% and compared them with the mRNA amounts of p16 and p21 after treatment with LX-112.

[6] = test system: SA-β-gal; assay: SA-β-gal staining of tissues of doxorubicin-aged mice (Example 8-3); format: in vivo, C57BL6J mice; conditions: stained area; mice, doxorubicin 10 mg/kg i.p.; untreated = 1
Procedure: as §1
Mice were sacrificed in the same method in described in Example 7-3, and tissue sections were prepared from the organ tissues of each region. SA-β-gal, an aging marker was stained. […] FIG. 3 is a photographic result of staining of adipose tissue.

[7] = test system: lipofuscin; assay: lipofuscin staining of muscle of doxorubicin-aged mice (Example 8-4); format: in vivo, C57BL6J mice; conditions: stained area; mice, doxorubicin 10 mg/kg i.p.; untreated = 1
Procedure: as §1
Mice were sacrificed in the same manner as in Example 7-4, and tissue sections were prepared from muscle tissue. Lipofuscin, an aging-related degenerative marker was stained.

[8] = test system: IL6; assay: serum IL6 ELISA in doxorubicin-aged mice (Example 8-5); format: in vivo, C57BL6J mice; conditions: mice, doxorubicin 10 mg/kg i.p., untreated = 1
Procedure: as §1
The amount of IL6, an aging-related inflammation secretory factor (SASP), was measured in serum collected from mice in the same manner as in Example 7-5 using an enzyme-linked immunosorbent assay (ELISA Kit, purchased from R&D Systems).

[9] = test system: IL6, CXCL1, CXCL10, IL1β; assay: SASP mRNA qRT-PCR in doxorubicin-aged mice (Example 8-6); format: in vivo, C57BL6J mice; conditions: mice, doxorubicin 10 mg/kg i.p.; untreated = 1
Procedure: as §1
Using cDNA synthesized in the same manner as Example 7-6, qRT-PCR was performed and analyzed for aging-related inflammation and fibrosis secretory factors (SASP) such as IL6, CXCL1, CXCL10, and IL1β. […] Table 45 calculates the mRNA amount of each factor after aging was induced by treatment with the anticancer drug as 100% and compared it with the mRNA amount of each factor after treatment with LX-112.

[10] = fatigue/weakness tests and body weight in doxorubicin-aged mice (Example 8-7); format: in vivo, C57BL6J mice; conditions: mice
Procedure: as §1
In the same way as Example 7-7, in order to analyze fatigue and weakness that occur as a side effect due to treatment with anticancer drugs in mice, activity evaluation (open field test), endurance evaluation (wire hanging test), and muscle strength and grip strength test (grip strength test) were performed. […] In Table 47, the amount of each evaluation after aging was induced by treatment with the anticancer drug was calculated as 100% and compared it with the amount of each evaluation after treatment with LX-112.

[11] = test system: AST, ALT; assay: serum AST and ALT in doxorubicin-aged mice (Example 8-8); format: in vivo, C57BL6J mice; conditions: mice, doxorubicin 10 mg/kg i.p., untreated = 1
Procedure: as §1
In the same manner as in Example 7-5, the amounts of AST (aspartate aminotransferase) and ALT (alanine transaminase) released into the blood during liver damage were measured by spectrophotometry in the serum collected from mice using a kit (purchased from Sigma) according to the method described in the manual. […] Table 50 calculates the amount of each factor after aging was induced by treatment with the anticancer drug as 100% and compared it with the amount of each factor after treatment with LX-112.

[12] = test system: IL6, CXCL1, CXCL10, IL1β; assay: SASP mRNA qRT-PCR in doxorubicin-aged mice (Example 8-6); format: in vivo, C57BL6J mice; conditions: doxorubicin 10 mg/kg i.p., untreated = 1
[13] = Table 46, doxorubicin 10 mg/kg i.p.

## COc1cccc2c1C(=O)c1c(O)c3c(c(O)c1C2=O)C[C@@](O)(C(=O)CO)C[C@@H]3O[C@H]1C[C@H](N)[C@H](O)[C@H](C)O1 [DOX, doxorubicin, reference compound]
[1]
  SA-β-gal (%): 90 (±7) %
[2]
  SA-β-gal (%): 66 (±5) %
[3]; DOX → DOX (senescent cells treated again with doxorubicin), 3 d
  Survival (%): 72 (±7) %
[3]; DOX → DOX, 7 d
  Survival (%): 55 (±5) %
[4]
  Tumor Diameter (mm): 15.4 (±1.2) mm
[5]
  p16 mRNA (Fold) Kidney: 1.3 (±0.3) Fold
  p16 mRNA (Fold) Liver: 2.6 (±0.8) Fold
  p16 mRNA (Fold) eWAT: 3.2 (±1.2)^ Fold
  p21 mRNA (Fold) Kidney: 2.6 (±2.1) Fold
  p21 mRNA (Fold) Liver: 3.8 (±2.3) Fold
  p21 mRNA (Fold) eWAT: 3.9 (±3) Fold
[6]
  SA-β-gal (Fold) Kidney: 4.1 (±1.5) Fold
  SA-β-gal (Fold) Liver: 3.7 (±0.9) Fold
  SA-β-gal (Fold) Lung: 1.3 (±0.4) Fold
  SA-β-gal (Fold) eWAT: 4.2 (±0.9) Fold
[7]
  Lipofuscin (Fold) Muscle: 2.2 (±0.5) Fold
[8]
  IL6 (Fold): 11.7 (±0.5) Fold
[9]
  mRNA (Fold) CXCL10, Liver: 2.6 (±0.9)^ Fold
  mRNA (Fold) IL6, eWAT: 3.2 (±0.3) Fold
[10]; [13]
  Grip Strength Test Strength (N): 0.7 (±0.1) N
  Open Field Test Time in Center (%): 4.9 (±2.2) %
  Wire Hanging Test Time (Sec): 32 (±11) Sec
[10]; doxorubicin 10 mg/kg i.p. without or with LX-112 70 mg/kg oral daily 21 days
  Mean Body Weight (g): 21.3 (±2.6) g
[11]
  ALT (Fold): 1.4 (±0.5) Fold
  AST (Fold): 1.3 (±0.0) Fold
[12]
  mRNA (Fold) CXCL1, Liver: 3 (±0.9) Fold
  mRNA (Fold) CXCL1, eWAT: 1.3 (±0.4)^ Fold
  mRNA (Fold) CXCL10, eWAT: 3 (±1.2) Fold
  mRNA (Fold) IL1β, Liver: 1.6 (±0.3) Fold
  mRNA (Fold) IL1β, eWAT: 1.6 (±0.2) Fold
  mRNA (Fold) IL6, Liver: 1.8 (±0.3) Fold
